Experimental data reported in paper PMC3985256, “Synthesis of Brominated 2-Phenitidine Derivatives as Valuable Inhibitors of Cholinesterases for the Treatment of Alzheimer’s Disease” (Iranian Journal of Pharmaceutical Research : IJPR, 2014).
Like-named read-outs stand apart in the source and are kept apart here.

Columns and labels:
Type in all cases: biochemical
[1] = biological target: acetylcholinesterase (AChE) (Homo sapiens, UniProt P22303); test: Acetylcholinesterase inhibition assay; conditions: for inhibition at 500 µM: read-out: Acetylcholinestrase (AChE) inhibition (%) at 0.5 mM
Method: The AChE inhibition activity was performed according to the reported method ([14]) with slight modifications. Total volume of the reaction mixture was 100 μL. It contained 60 μL Na2HPO4 buffer with concentration of 50 mM and pH 7.7. Ten μL test compound (0.5 mM well^-1) was added, followed by the addition of 10 μL (0.005 unit well^-1) enzyme. The contents were mixed and pre-read at 405 nm. Then contents were pre-incubated for 10 min at 37 °C. The reaction was initiated by the addition of 10 μL of 0.5 mM well^-1 substrate (acetylthiocholine iodide), followed by the addition of 10 μL DTNB (0.5 mM well^-1). After 15 min of incubation at 37 °C, absorbance was measured at 405 nm. Synergy HT (BioTek, USA) 96-well plate reader was used in all experiments. All experiments were carried out with their respective controls in triplicate. […] The percent inhibition was calculated by the help of following equation )[19] (.
(§1) Inhibition %=Control-Test/Control×100
(§2) IC50 values (concentration at which there is 50% enzyme inhibition) of compounds were calculated using EZ-Fit Enzyme kinetics software (Perella Scientific Inc. Amherst, USA).

[2] = biological target: butyrylcholinesterase (BChE) (Homo sapiens, UniProt P06276); test: Butyrylcholinesterase inhibition assay; conditions: for inhibition at 500 µM: read-out: Butyrylcholinesterase (BChE) inhibition (%) at 0.5 mM
Method: The BChE inhibition activity was performed according to the reported method ([14],[17]) with slight modifications. Total volume of the reaction mixture was 100 μL containing 60 μL, Na2HPO4 buffer, 50 mM and pH 7.7. Ten μL test compound 0.5 mM well^-1, followed by the addition of 10 μL (0. 5 unit well^-1) BChE. The contents were mixed and pre-read at 405 nm. Then contents were pre-incubated for 10 min at 37 °C. The reaction was initiated by the addition of 10 μL of 0.5 mM well^-1 substrate (butyrylthiocholine bromide), followed by the addition of 10 μL DTNB (0.5 mM well^-1). After 15 min of incubation at 37 °C, absorbance was measured at 405 nm. Synergy HT (BioTek, USA) 96-well plate reader was used in all experiments. All experiments were carried out with their respective controls in triplicate. […] The percent inhibition was calculated by the help of following equation.
as §1, §2

lipoxygenase (LOX) = biological target: T1, lipoxygenase (LOX) (Glycine max, UniProt P08170); test: Lipoxygenase inhibition assay; conditions: n = 3, mean ± sem; for inhibition at 500 µM: 0.5 mM
T1 sequence (P08170 1-839): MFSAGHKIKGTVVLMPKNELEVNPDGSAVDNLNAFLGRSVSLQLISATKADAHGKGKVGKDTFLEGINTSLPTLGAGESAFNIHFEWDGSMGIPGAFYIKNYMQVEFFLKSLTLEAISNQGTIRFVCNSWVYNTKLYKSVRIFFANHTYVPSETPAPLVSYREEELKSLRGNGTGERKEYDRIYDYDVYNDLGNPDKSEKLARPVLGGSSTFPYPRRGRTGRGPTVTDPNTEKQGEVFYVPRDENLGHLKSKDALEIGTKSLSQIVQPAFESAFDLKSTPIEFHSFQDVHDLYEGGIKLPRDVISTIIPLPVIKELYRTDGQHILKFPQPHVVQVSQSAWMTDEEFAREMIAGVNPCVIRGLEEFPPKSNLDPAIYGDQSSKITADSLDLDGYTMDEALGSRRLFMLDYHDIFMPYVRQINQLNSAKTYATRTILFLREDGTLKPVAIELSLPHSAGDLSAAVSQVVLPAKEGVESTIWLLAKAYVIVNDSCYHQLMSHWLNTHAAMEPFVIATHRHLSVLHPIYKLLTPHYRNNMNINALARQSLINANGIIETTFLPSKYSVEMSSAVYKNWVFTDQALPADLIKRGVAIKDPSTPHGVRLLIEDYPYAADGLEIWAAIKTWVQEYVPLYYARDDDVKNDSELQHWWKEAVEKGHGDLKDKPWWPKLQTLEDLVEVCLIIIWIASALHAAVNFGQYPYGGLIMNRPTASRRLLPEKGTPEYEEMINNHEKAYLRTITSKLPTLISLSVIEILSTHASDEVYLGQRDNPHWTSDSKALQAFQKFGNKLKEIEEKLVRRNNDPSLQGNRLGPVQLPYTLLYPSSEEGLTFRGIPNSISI
Method: Lipoxygenase activity was assayed according to the reported method ([18]-[20]) but with slight modifications. A total volume of 200 μL assay mixture contained 150 μL sodium phosphate buffer (100 mM, pH 8.0), 10 μL test compound and 15 μL purified lipoxygenase enzyme (Sigma, USA). The contents were mixed and pre-read at 234 nm and pre-incubated for 10 min at 25 °C. The reaction was initiated by the addition of 25 μL substrate solution. The change in absorbance was observed after 6 min at 234 nm. Synergy HT (BioTek, USA) 96-well plate reader was used in all experiments. All reactions were performed in triplicates. The positive and negative controls were included in the assay. Baicalein (0.5 mM well^-1) was used as a positive control. The percentage inhibition was calculated by formula as follows.

[3] = n = 3, mean ± sem, read-out: Acetylcholinestrase (AChE) (IC50)
[4] = n = 3, mean ± sem, read-out: Butyrylcholinesterase (BChE) (IC50)

Sequence of acetylcholinesterase (AChE) (P22303 32-614): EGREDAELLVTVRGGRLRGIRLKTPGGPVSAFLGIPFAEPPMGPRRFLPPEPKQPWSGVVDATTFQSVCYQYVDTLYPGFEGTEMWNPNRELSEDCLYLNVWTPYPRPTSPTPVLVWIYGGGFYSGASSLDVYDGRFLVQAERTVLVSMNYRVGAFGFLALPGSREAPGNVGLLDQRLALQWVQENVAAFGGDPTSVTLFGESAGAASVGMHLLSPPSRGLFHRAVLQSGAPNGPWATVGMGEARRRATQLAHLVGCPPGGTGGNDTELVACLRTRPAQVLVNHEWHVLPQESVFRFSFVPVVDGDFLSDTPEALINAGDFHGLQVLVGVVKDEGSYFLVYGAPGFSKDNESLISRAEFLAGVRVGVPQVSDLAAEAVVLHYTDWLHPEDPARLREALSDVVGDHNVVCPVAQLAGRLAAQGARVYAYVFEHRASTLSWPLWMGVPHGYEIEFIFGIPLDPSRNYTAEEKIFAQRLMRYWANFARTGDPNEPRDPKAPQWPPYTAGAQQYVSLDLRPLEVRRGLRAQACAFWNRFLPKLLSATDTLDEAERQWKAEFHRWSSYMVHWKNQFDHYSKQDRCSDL
Sequence of butyrylcholinesterase (BChE) (P06276 29-602): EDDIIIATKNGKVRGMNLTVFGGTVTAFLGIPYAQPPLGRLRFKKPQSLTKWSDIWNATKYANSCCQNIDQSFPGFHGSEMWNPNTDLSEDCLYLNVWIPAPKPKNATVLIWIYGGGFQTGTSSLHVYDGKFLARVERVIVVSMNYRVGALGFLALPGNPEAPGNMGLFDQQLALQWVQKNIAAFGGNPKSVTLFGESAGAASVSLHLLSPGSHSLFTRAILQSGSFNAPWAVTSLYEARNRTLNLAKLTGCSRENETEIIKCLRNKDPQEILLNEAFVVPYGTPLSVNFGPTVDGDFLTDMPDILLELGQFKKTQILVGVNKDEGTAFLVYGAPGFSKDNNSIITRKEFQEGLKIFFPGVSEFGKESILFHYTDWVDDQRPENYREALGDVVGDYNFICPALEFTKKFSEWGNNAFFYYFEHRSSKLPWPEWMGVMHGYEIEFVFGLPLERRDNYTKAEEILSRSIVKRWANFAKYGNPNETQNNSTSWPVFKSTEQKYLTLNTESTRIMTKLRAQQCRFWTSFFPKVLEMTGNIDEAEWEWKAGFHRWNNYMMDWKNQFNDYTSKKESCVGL

Compound | inhibition at 500 µM ([1]; 0.5 mM, n = 3, mean ± sem) [%] | IC50 [1, 3] [µM] | inhibition at 500 µM ([2]; 0.5 mM, n = 3, mean ± sem) [%] | IC50 [2, 4] [µM] | inhibition at 500 µM (lipoxygenase (LOX)) [%] | Lipoxygenase (LOX) (IC50) (lipoxygenase (LOX)) | Acetylcholinestrase (AChE) (IC50) ([1]; n = 3, mean ± sem) | IC50 [1] [µM] | inhibition at 500 µM [1] [%] | IC50 [2] [µM] | inhibition at 500 µM [2] [%] | IC50 (lipoxygenase (LOX)) [µM]
CCOc1cc(Br)c(Br)cc1N(Cc1ccc(Cl)cc1)S(=O)(=O)c1ccccc1 [Compound 6l] | 82.94 ± 0.15 | 126.61 ± 0.02 | 66.31 ± 0.11 | 190.31 ± 0.17 | 55.5 ± 0.84 |  |  |  |  |  |  | 
CCOc1cc(Br)c(Br)cc1N(Cc1ccccc1)S(=O)(=O)c1ccccc1 [Compound 6e, N-Benzyl-N-(4,5-dibromo-2-ethoxyphenyl)benzenesulfonamide] | 79.27 ± 0.63 | 88.21 ± 0.17 | 85.92 ± 0.28 | 58.71 ± 0.08 | 31.29 ± 0.18 | NIL |  |  |  |  |  | 
CCOc1cc(Br)c(Br)cc1N(C(C)C)S(=O)(=O)c1ccccc1 [Compound 6b, N-Isopropyl -N-(4,5-dibromo-2-ethoxyphenyl)benzenesulfonamide] | 79.07 ± 0.38 | 87.31 ± 0.11 | 56.57 ± 0.55 | > 300 | 83.54 ± 0.33 |  |  |  |  |  |  | 
CCOc1cc(Br)c(Br)cc1N(CC)S(=O)(=O)c1ccccc1 [Compound 6a, N-Ethyl-N-(4,5-dibromo-2-ethoxyphenyl)benzenesulfonamide] | 28.9 ± 0.31 |  | 85.33 ± 0.26 | 54.9 ± 0.85 | 81.75 ± 0.71 |  | NIL |  |  |  |  | 
CCOc1cc(Br)c(Br)cc1N(Cc1ccccc1Cl)S(=O)(=O)c1ccccc1 [Compound 6k] | 86.71 ± 0.22 | 52.41 ± 0.27 | 93.66 ± 0.82 | 42.21 ± 0.25 | 33.23 ± 0.22 | NIL |  |  |  |  |  | 
CCOc1cc(Br)c(Br)cc1N(CCCc1ccccc1)S(=O)(=O)c1ccccc1 [Compound 6g, N-Phenylpropyl-N-(4,5-dibromo-2-ethoxyphenyl)benzenesulfonamide] | 77.18 ± 0.33 | 158.41 ± 0.11 | 90.14 ± 0.77 | 57.5 ± 0.63 | 75.21 ± 0.11 |  |  |  |  |  |  | 
CCOc1cc(Br)c(Br)cc1NS(=O)(=O)c1ccccc1 [Compound 4, N-(4,5-dibromo-2-ethoxyphenyl)benzenesulfonamide] | 44.15 ± 0.19 |  | 80.75 ± 0.17 | 70.21 ± 0.18 | 11.6 ± 0.27 | NIL | NIL |  |  |  |  | 
CCOc1cc(Br)c(Br)cc1N(CCBr)S(=O)(=O)c1ccccc1 [Compound 6d] |  |  |  |  | 83.95 ± 0.22 |  |  | 131.9 ± 0.16 | 73.21 ± 0.71 | 45.31 ± 0.17 | 87.2 ± 0.96 | 
CCOc1cc(Br)c(Br)cc1N(Cc1ccc(F)cc1)S(=O)(=O)c1ccccc1 [Compound 6j] | 81.45 ± 0.12 | 71.31 ± 0.09 | 87.21 ± 0.31 | 60.2 ± 0.66 | 51.23 ± 0.31 |  |  |  |  |  |  | 
O=c1cc(-c2ccccc2)oc2cc(O)c(O)c(O)c12 [Baicalein, reference compound] |  |  |  |  |  |  |  |  |  |  |  | 22.4 ± 1.3
C=CCN(c1cc(Br)c(Br)cc1OCC)S(=O)(=O)c1ccccc1 [Compound 6c, N-Allyl -N-(4,5-dibromo-2-ethoxyphenyl)benzenesulfonamide] | 72.22 ± 0.55 | 143.91 ± 0.08 | 80.75 ± 0.68 | 68.41 ± 0.21 | 66.26 ± 0.54 |  |  |  |  |  |  | 
CCOc1cc(Br)c(Br)cc1N(Cc1ccc(Br)cc1)S(=O)(=O)c1ccccc1 [Compound 6h] | 74.31 ± 0.11 | 145.6 ± 0.21 | 87.91 ± 0.25 | 60.11 ± 0.34 | 37.04 ± 0.28 | NIL |  |  |  |  |  | 
CCOc1cc(Br)c(Br)cc1N(Cc1cccc(Cl)c1)S(=O)(=O)c1ccccc1 [Compound 6i] | 82.54 ± 0.36 | 73.9 ± 0.87 | 91.78 ± 0.33 | 57.11 ± 0.46 | 49.6 ± 0.64 | NIL |  |  |  |  |  | 
CCOc1cc(Br)c(Br)cc1N(CCc1ccccc1)S(=O)(=O)c1ccccc1 [Compound 6f, N-Phenylethyl-N-(4,5-dibromo-2-ethoxyphenyl)benzenesulfonamide] | 77.58 ± 0.66 | 86.41 ± 0.51 | 88.73 ± 0.14 | 53.41 ± 0.51 | 90.02 ± 0.37 |  |  |  |  |  |  | 
